From the NIST ThermoML archive (doi:10.1016/j.jct.2005.02.004)

Test: mn = molality of the nth substance listed, in mol/kg
Settings: Liquid, Vibrating tube method

[Br-].[Br-].[Zn+2] [zinc bromide] + CO
Settings	mass density [kg/m3]
298.27 K, 175 kPa, m1 = 0.7158	902.32
298.27 K, 206 kPa, m1 = 0.3785	853.39
298.27 K, 206 kPa, m1 = 1.951	1072.66
298.27 K, 4983 kPa, m1 = 1.951	1077.46
298.27 K, 4990 kPa, m1 = 0.3785	858.17
298.27 K, 4998 kPa, m1 = 0.7158	907.05
298.27 K, 9995 kPa, m1 = 1.951	1082.31
298.27 K, 10009 kPa, m1 = 0.7158	911.75
298.27 K, 10013 kPa, m1 = 0.3785	862.94
298.27 K, 14985 kPa, m1 = 0.7158	916.21
298.27 K, 14995 kPa, m1 = 0.3785	867.44
298.27 K, 15001 kPa, m1 = 1.951	1087.02
298.27 K, 19983 kPa, m1 = 1.951	1091.45
298.27 K, 19984 kPa, m1 = 0.3785	871.75
298.27 K, 19989 kPa, m1 = 0.7158	920.51
298.27 K, 24990 kPa, m1 = 1.951	1095.81
298.27 K, 25018 kPa, m1 = 0.3785	875.78
298.27 K, 25019 kPa, m1 = 0.7158	924.66
298.27 K, 29988 kPa, m1 = 0.3785	879.71
298.27 K, 29996 kPa, m1 = 1.951	1100.02
298.27 K, 34982 kPa, m1 = 0.3785	883.51
298.27 K, 34985 kPa, m1 = 0.7158	932.44
298.27 K, 34998 kPa, m1 = 1.951	1104.11
298.27 K, 35000 kPa, m1 = 0.7158	932.43
298.27 K, 39992 kPa, m1 = 0.7158	936.16
298.27 K, 40008 kPa, m1 = 0.3785	887.18
298.27 K, 40010 kPa, m1 = 1.951	1108.09
298.28 K, 200 kPa, m1 = 0.05772	797.74
298.28 K, 4999 kPa, m1 = 0.05772	802.42
298.28 K, 9984 kPa, m1 = 0.05772	807.04
298.28 K, 14988 kPa, m1 = 0.05772	811.39
298.28 K, 19994 kPa, m1 = 0.05772	815.58
298.28 K, 24988 kPa, m1 = 0.05772	819.58
298.28 K, 29998 kPa, m1 = 0.05772	823.42
298.28 K, 34981 kPa, m1 = 0.05772	827.09
298.28 K, 40008 kPa, m1 = 0.05772	830.66
323.22 K, 212 kPa, m1 = 0.7158	876.52
323.22 K, 228 kPa, m1 = 0.3785	828.32
323.22 K, 230 kPa, m1 = 0.05772	773.97
323.22 K, 245 kPa, m1 = 1.951	1042.34
323.22 K, 4983 kPa, m1 = 0.3785	833.75
323.22 K, 4994 kPa, m1 = 0.05772	779.33
323.22 K, 5004 kPa, m1 = 1.951	1047.72
323.22 K, 5010 kPa, m1 = 0.7158	881.93
323.22 K, 9982 kPa, m1 = 1.951	1053.09
323.22 K, 9993 kPa, m1 = 0.3785	839.12
323.22 K, 9999 kPa, m1 = 0.7158	887.26
323.22 K, 10015 kPa, m1 = 0.05772	784.65
323.22 K, 14987 kPa, m1 = 1.951	1058.26
323.22 K, 14997 kPa, m1 = 0.05772	789.6
323.22 K, 14997 kPa, m1 = 0.3785	844.21
323.22 K, 15018 kPa, m1 = 0.7158	892.34
323.22 K, 19990 kPa, m1 = 0.3785	849.04
323.22 K, 19994 kPa, m1 = 0.7158	897.14
323.22 K, 20007 kPa, m1 = 0.05772	794.31
323.22 K, 20009 kPa, m1 = 1.951	1063.24
323.22 K, 24981 kPa, m1 = 0.7158	901.73
323.22 K, 24985 kPa, m1 = 0.05772	798.77
323.22 K, 24994 kPa, m1 = 0.3785	853.6
323.22 K, 24998 kPa, m1 = 1.951	1068
323.22 K, 29987 kPa, m1 = 0.7158	906.15
323.22 K, 29997 kPa, m1 = 1.951	1072.61
323.22 K, 30012 kPa, m1 = 0.05772	803.09
323.22 K, 30016 kPa, m1 = 0.3785	857.92
323.22 K, 34994 kPa, m1 = 0.7158	910.38
323.22 K, 34996 kPa, m1 = 0.05772	807.14
323.22 K, 34997 kPa, m1 = 0.3785	862.1
323.22 K, 35003 kPa, m1 = 1.951	1077.08
323.22 K, 39988 kPa, m1 = 0.3785	866.11
323.22 K, 39997 kPa, m1 = 0.7158	914.47
323.22 K, 39998 kPa, m1 = 0.05772	811.05
323.22 K, 40001 kPa, m1 = 1.951	1081.4
348.23 K, 311 kPa, m1 = 0.3785	802.57
348.23 K, 316 kPa, m1 = 0.7158	850.07
348.23 K, 4989 kPa, m1 = 0.7158	856.15
348.23 K, 5006 kPa, m1 = 0.3785	808.74
348.23 K, 9999 kPa, m1 = 0.3785	814.86
348.23 K, 10009 kPa, m1 = 0.7158	862.27
348.23 K, 14998 kPa, m1 = 0.7158	868
348.23 K, 15007 kPa, m1 = 0.3785	820.6
348.23 K, 19987 kPa, m1 = 0.3785	825.97
348.23 K, 19998 kPa, m1 = 0.7158	873.4
348.23 K, 24998 kPa, m1 = 0.3785	831.08
348.23 K, 25006 kPa, m1 = 0.7158	878.54
348.23 K, 29987 kPa, m1 = 0.7158	883.42
348.23 K, 29988 kPa, m1 = 0.3785	835.92
348.23 K, 34986 kPa, m1 = 0.7158	888.06
348.23 K, 35004 kPa, m1 = 0.3785	840.55
348.23 K, 40002 kPa, m1 = 0.7158	892.55
348.23 K, 40007 kPa, m1 = 0.3785	844.98
348.24 K, 320 kPa, m1 = 0.05772	749.2
348.24 K, 338 kPa, m1 = 1.951	1012.66
348.24 K, 4981 kPa, m1 = 0.05772	755.32
348.24 K, 4997 kPa, m1 = 1.951	1018.61
348.24 K, 9997 kPa, m1 = 0.05772	761.44
348.24 K, 10010 kPa, m1 = 1.951	1024.67
348.24 K, 14982 kPa, m1 = 0.05772	767.11
348.24 K, 14997 kPa, m1 = 1.951	1030.41
348.24 K, 19995 kPa, m1 = 1.951	1035.89
348.24 K, 20002 kPa, m1 = 0.05772	772.47
348.24 K, 25006 kPa, m1 = 1.951	1041.15
348.24 K, 25019 kPa, m1 = 0.05772	777.52
348.24 K, 29980 kPa, m1 = 1.951	1046.17
348.24 K, 29988 kPa, m1 = 0.05772	782.26
348.24 K, 34988 kPa, m1 = 0.05772	786.8
348.24 K, 34988 kPa, m1 = 1.951	1051.04
348.24 K, 39992 kPa, m1 = 1.951	1055.74
348.24 K, 39996 kPa, m1 = 0.05772	791.14
373.24 K, 509 kPa, m1 = 0.3785	775.13
373.24 K, 510 kPa, m1 = 0.7158	822.07
373.24 K, 4989 kPa, m1 = 0.3785	782.12
373.24 K, 5012 kPa, m1 = 0.7158	828.98
373.24 K, 9999 kPa, m1 = 0.7158	836.05
373.24 K, 10005 kPa, m1 = 0.3785	789.3
373.24 K, 14990 kPa, m1 = 0.7158	842.63
373.24 K, 14993 kPa, m1 = 0.3785	795.89
373.24 K, 19988 kPa, m1 = 0.7158	848.79
373.24 K, 20013 kPa, m1 = 0.3785	802.08
373.24 K, 24986 kPa, m1 = 0.3785	807.84
373.24 K, 25005 kPa, m1 = 0.7158	854.61
373.24 K, 29988 kPa, m1 = 0.3785	813.28
373.24 K, 29996 kPa, m1 = 0.7158	860.06
373.24 K, 35005 kPa, m1 = 0.3785	818.47
373.24 K, 35010 kPa, m1 = 0.7158	865.28
373.24 K, 39999 kPa, m1 = 0.3785	823.36
373.24 K, 40008 kPa, m1 = 0.7158	870.23
373.25 K, 530 kPa, m1 = 0.05772	722.55
373.25 K, 5013 kPa, m1 = 0.05772	729.6
373.25 K, 10010 kPa, m1 = 0.05772	736.76
373.25 K, 14996 kPa, m1 = 0.05772	743.34
373.25 K, 20007 kPa, m1 = 0.05772	749.46
373.25 K, 25002 kPa, m1 = 0.05772	755.2
373.25 K, 29988 kPa, m1 = 0.05772	760.57
373.25 K, 35011 kPa, m1 = 0.05772	765.68
373.25 K, 40009 kPa, m1 = 0.05772	770.5
373.26 K, 510 kPa, m1 = 1.951	982.6
373.26 K, 4981 kPa, m1 = 1.951	989.17
373.26 K, 9999 kPa, m1 = 1.951	996.08
373.26 K, 14998 kPa, m1 = 1.951	1002.57
373.26 K, 19990 kPa, m1 = 1.951	1008.69
373.26 K, 25011 kPa, m1 = 1.951	1014.53
373.26 K, 29987 kPa, m1 = 1.951	1020.09
373.26 K, 34996 kPa, m1 = 1.951	1025.43
373.26 K, 39999 kPa, m1 = 1.951	1030.56
398.25 K, 874 kPa, m1 = 0.7158	791.54
398.25 K, 875 kPa, m1 = 0.3785	744.91
398.25 K, 4997 kPa, m1 = 0.7158	799.23
398.25 K, 5007 kPa, m1 = 0.3785	752.83
398.25 K, 9995 kPa, m1 = 0.7158	807.74
398.25 K, 9997 kPa, m1 = 0.3785	761.43
398.25 K, 14982 kPa, m1 = 0.7158	815.46
398.25 K, 15016 kPa, m1 = 0.3785	769.33
398.25 K, 19995 kPa, m1 = 0.7158	822.66
398.25 K, 19996 kPa, m1 = 0.3785	776.5
398.25 K, 25004 kPa, m1 = 0.7158	829.32
398.25 K, 25013 kPa, m1 = 0.3785	783.19
398.25 K, 29995 kPa, m1 = 0.3785	789.37
398.25 K, 29999 kPa, m1 = 0.7158	835.55
398.25 K, 34983 kPa, m1 = 0.7158	841.37
398.25 K, 34995 kPa, m1 = 0.3785	795.22
398.25 K, 39988 kPa, m1 = 0.7158	846.94
398.25 K, 40001 kPa, m1 = 0.3785	800.74
398.27 K, 890 kPa, m1 = 1.951	951.2
398.27 K, 899 kPa, m1 = 0.05772	692.91
398.27 K, 4987 kPa, m1 = 1.951	958.29
398.27 K, 5013 kPa, m1 = 0.05772	700.92
398.27 K, 9996 kPa, m1 = 1.951	966.33
398.27 K, 10001 kPa, m1 = 0.05772	709.63
398.27 K, 14992 kPa, m1 = 0.05772	717.48
398.27 K, 14992 kPa, m1 = 1.951	973.78
398.27 K, 19995 kPa, m1 = 0.05772	724.66
398.27 K, 20001 kPa, m1 = 1.951	980.78
398.27 K, 24985 kPa, m1 = 0.05772	731.27
398.27 K, 25015 kPa, m1 = 1.951	987.36
398.27 K, 29996 kPa, m1 = 1.951	993.57
398.27 K, 30002 kPa, m1 = 0.05772	737.46
398.27 K, 34980 kPa, m1 = 1.951	999.48
398.27 K, 34994 kPa, m1 = 0.05772	743.23
398.27 K, 39999 kPa, m1 = 0.05772	748.68
398.27 K, 40007 kPa, m1 = 1.951	1005.18
